These results are taken from patent US20230087196A1, “Application of circIKBKB Inhibitors and Test Reagents thereof in Diagnosis, Treatment and Prognosis Kits for Breast Cancer Bone Metastasis” (SUN YAT-SEN UNIVERSITY CANCER CENTER, priority 2021, published 2023).

The subject of experiment [1] is SCP2 cells. The experiment can be described thus: In vivo established bone metastasis model: SCP2 cells into left ventricle of nude mice, eIF4A3-IN-2 started when bone-metastatic tumors formed. The settings on record: 1 mg/kg intragastric, started when BLI signal reached 2×10^7 p/sec/cm^2/sr, after 5 weeks treatment, vs vehicle. Here is the method: Experiment 3: SCP2 cells were injected into the left ventricle of nude mice (1*10^6 cells/mouse). eIF4A3-IN-2 (1 mg/kg) treatment via intragastric administration was started when bioluminescence signal of bone-metastatic tumors reached 2×10^7 p/sec/cm^2/sr. The mice were sacrificed after 60 days, and the hindlimbs of the mice were taken for μCT analysis, H&E and TRAP staining.

Experiment [2] deals with SCP2 cells. In words: In vivo bone metastasis prevention model: SCP2 cells into left ventricle of nude mice, eIF4A3-IN-2 intragastric from the second day. The settings on record: 1 mg/kg intragastric from the second day after SCP2 injection, vs vehicle. As to the method: Experiment 2: SCP2 cells were injected into the left ventricle of nude mice (1*10^6 cells/mouse), and eIF4A3-IN-2 (1 mg/kg) was administered to the mice by intragastric administration from the second day. The mice were sacrificed after 60 days, and hindlimbs of the mice were taken for μCT analysis, H&E and TRAP staining.

For `O=C(c1cnn2cc(Br)ccc12)N1CCN(C(=O)c2ccc(Br)cc2)[C@@H](c2ccc(Cl)cc2)C1` [eIF4A3-IN-2], in the experiment on SCP2 cells [1], the bone-metastatic tumor burden result was “decreased” and the “onsets of bone metastases” value was “dramatically reduced”. In the experiment on SCP2 cells [2], the “number of TRAP+-osteoclasts in bone surface area” value was “less”; the “onsets of bone-metastases and bone-metastasis burden” value is “significantly delayed”; the osteolytic areas result is “less”.
